# Test results published in patent US20090253669A1, “Substituted Sulfonamide Compounds” (GRUENENTHAL GmbH, priority 2008, published 2009).
# Key:
# [1] = biological target: T1, human B1R receptor (hB1R) (Homo sapiens, UniProt P46663); assay: FLIPR Ca2+ assay on hB1R-transfected CHO K1 cells, antagonistic action; type: cell-based; conditions: CHO-K1, 10 μM test substance; agonist Lys-Des-Arg9-bradykinin 0.5 nM; % of maximum achievable inhibition; read-out: hB1R [10 μM] % inhibition
# T1 construct: host or cells: CHO K1 cells
# T1 sequence (P46663 1-353): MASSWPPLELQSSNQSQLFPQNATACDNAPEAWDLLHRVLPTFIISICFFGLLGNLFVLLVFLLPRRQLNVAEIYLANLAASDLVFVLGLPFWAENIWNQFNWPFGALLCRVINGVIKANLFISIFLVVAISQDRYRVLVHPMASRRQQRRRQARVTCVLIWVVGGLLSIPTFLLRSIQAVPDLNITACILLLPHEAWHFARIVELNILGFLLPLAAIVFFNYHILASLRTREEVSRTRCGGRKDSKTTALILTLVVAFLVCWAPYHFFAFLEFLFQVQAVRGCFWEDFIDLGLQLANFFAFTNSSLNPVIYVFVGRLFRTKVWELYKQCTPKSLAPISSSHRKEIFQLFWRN
# [2] = biological target: T2, B1R receptor of the rat (rB1R) (Rattus norvegicus, UniProt P97583); assay: FLIPR Ca2+ assay on rB1R-transfected CHO K1 cells, antagonistic action; type: cell-based; conditions: CHO-K1, 10 μM test substance; agonist Des-Arg9-bradykinin 100 nM; % of maximum achievable inhibition; read-out: rB1R [10 μM] % inhibition
# T2 construct: host or cells: CHO K1 cells
# T2 sequence (P97583 1-337): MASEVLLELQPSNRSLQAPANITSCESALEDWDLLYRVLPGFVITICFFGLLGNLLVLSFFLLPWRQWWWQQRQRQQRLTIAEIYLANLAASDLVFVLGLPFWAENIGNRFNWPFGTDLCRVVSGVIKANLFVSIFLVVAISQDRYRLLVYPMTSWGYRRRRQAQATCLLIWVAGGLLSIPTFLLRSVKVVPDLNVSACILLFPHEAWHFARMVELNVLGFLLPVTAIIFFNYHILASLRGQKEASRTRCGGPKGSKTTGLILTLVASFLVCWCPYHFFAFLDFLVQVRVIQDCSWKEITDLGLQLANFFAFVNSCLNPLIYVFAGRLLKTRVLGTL
SMILES,inhibition at 10 µM [1] [%],inhibition at 10 µM [2] [%]
"CN(CCC1CCC(CCc2ccccc2)(N(C)C)CC1)C(=O)COCC1CCc2ccccc2N1S(=O)(=O)c1ccc(Cl)c(Cl)c1 (centres unmarked) [Compound 101, 2-((1-(3,4-dichlorophenylsulfonyl)-1,2,3,4-tetrahydroquinolin-2-yl)methoxy)-N-(2-(4-(dimethylamino)-4-phenethylcyclohexyl)ethyl)-N-methylacetamide]",99,88
"COc1cc(C)c(S(=O)(=O)N2CCCC2COCC(=O)NC2CCC(c3ccccc3)(N3CCCC3)CC2)c(C)c1 (centres unmarked) [Compound 145, 2-((1-(4-methoxy-2,6-dimethylphenylsulfonyl)pyrrolidin-2-yl)methoxy)-N-(4-phenyl-4-(pyrrolidin-1-yl)cyclohexyl)acetamide]",92,110
"COc1cc(C)c(S(=O)(=O)N2CCCCC2COCC(=O)N(C)CCC2CCC(Cc3ccccc3)(N(C)C)CC2)c(C)c1 (centres unmarked) [Compound 84, N-(2-(4-benzyl-4-(dimethylamino)cyclohexyl)ethyl)-2-((1-(4-methoxy-2,6-dimethylphenylsulfonyl)piperidin-2-yl)methoxy)-N-methylacetamide]",104,99
"CN(CCCC1CCC(Cc2ccccc2)(N2CCCC2)CC1)C(=O)CC1CCCCN1S(=O)(=O)c1cccc(C(F)(F)F)c1 (centres unmarked) [Compound 93, N-(3-(4-benzyl-4-(pyrrolidin-1-yl)cyclohexyl)propyl)-N-methyl-2-(1-(3-(trifluoromethyl)phenylsulfonyl)piperidin-2-yl)acetamide]",98,94
"CN(CC1CCC(c2ccccc2)(N2CCCC2)CC1)C(=O)CC(NS(=O)(=O)c1ccc2ccccc2c1)c1ccccc1 (centres unmarked) [Compound 92, N-methyl-3-(naphthalene-2-sulfonamido)-3-phenyl-N-((4-phenyl-4-(pyrrolidin-1-yl)cyclohexyl)methyl)propanamide]",101,95
"Cc1ccccc1CC1(N(C)C)CCC(NC(=O)COCCN(C)S(=O)(=O)c2ccc(Cl)cc2Cl)CC1 (centres unmarked) [Compound 30, 2-(2-(2,4-dichloro-N-methylphenylsulfonamido)ethoxy)-N-(4-(dimethylamino)-4-(2-methylbenzyl)cyclohexyl)acetamide]",63,39
"COc1cc(C)c(S(=O)(=O)N(C)CCOCC(=O)N(C)CCC2CCC(c3cccnc3)(N(C)C)CC2)c(C)c1 (centres unmarked) [Compound 207, N-(2-(4-(Dimethylamino)-4-(pyridin-3-yl)cyclohexyl)ethyl)-2-(2-(4-methoxy-N,2,6-trimethylphenylsulfonamido)ethoxy)-N-methylacetamide]",100,101
"CN(CCC1CCC(c2ccccc2)(N(C)C)CC1)C(=O)CC(NS(=O)(=O)c1ccc2ccccc2c1)c1ccccc1 (centres unmarked) [Compound 90, N-(2-(4-(dimethylamino)-4-phenylcyclohexyl)ethyl)-N-methyl-3-(naphthalene-2-sulfonamido)-3-phenylpropanamide]",97,97
"Cc1cc(S(=O)(=O)N2CCCCC2CCC(=O)N2CCC(CCc3ccccc3)(N(C)C)CC2)c(C)cc1Cl (centres unmarked) [Compound 137, 3-(1-(4-chloro-2,5-dimethylphenylsulfonyl)piperidin-2-yl)-1-(4-(dimethylamino)-4-phenethylpiperidin-1-yl)propan-1-one]",104,30
"COc1cc(C)c(S(=O)(=O)N2CCCC(COCC(=O)N(C)CC3CCC(CCc4ccccc4)(N4CCN(C)CC4)CC3)C2)c(C)c1 (centres unmarked) [Compound 182, 2-((1-(4-methoxy-2,6-dimethylphenylsulfonyl)piperidin-3-yl)methoxy)-N-methyl-N-((4-(4-methylpiperazin-1-yl)-4-phenethylcyclohexyl)methyl)acetamide]",106,67
"COc1cc(C)c(S(=O)(=O)N2CCCC2COCC(=O)NC2CCC(Cc3ccccc3)(N3CCOCC3)CC2)c(C)c1 (centres unmarked) [Compound 159, N-(4-benzyl-4-morpholinocyclohexyl)-2-((1-(4-methoxy-2,6-dimethylphenylsulfonyl)pyrrolidin-2-yl)methoxy)acetamide]",45,98
"COc1cc(C)c(S(=O)(=O)N2CCCCC2COCC(=O)N(C)CCCC2CCC(c3ccccc3)(N3CCCC3)CC2)c(C)c1 (centres unmarked) [Compound 32, 2-((1-(4-methoxy-2,6-dimethylphenylsulfonyl)piperidin-2-yl)methoxy)-N-methyl-N-(3-(4-phenyl-4-(pyrrolidin-1-yl)cyclohexyl)propyl)acetamide]",104,102
"COc1cc(C)c(S(=O)(=O)N2CCC(OCC(=O)NCC3CCC(c4ccccc4)(N4CCOCC4)CC3)C2)c(C)c1 (centres unmarked) [Compound 173, 2-(1-(4-methoxy-2,6-dimethylphenylsulfonyl)pyrrolidin-3-yloxy)-N-((4-morpholino-4-phenylcyclohexyl)methyl)acetamide]",64,78
"Cc1ccccc1CC1(N(C)C)CCC(NC(=O)CC2c3ccccc3CCN2S(=O)(=O)c2ccc(Cl)c(Cl)c2)CC1 (centres unmarked) [Compound 12, 2-(2-(3,4-dichlorophenylsulfonyl)-1,2,3,4-tetrahydroisoquinolin-1-yl)-N-(4-(dimethylamino)-4-(2-methylbenzyl)cyclohexyl)acetamide]",77,88
"O=C(COCC1CCCN(S(=O)(=O)c2c(Cl)cc(Cl)cc2Cl)C1)NC1CCC(c2ccccc2)(N2CCCC2)CC1 (centres unmarked) [Compound 192, N-(4-phenyl-4-(pyrrolidin-1-yl)cyclohexyl)-2-((1-(2,4,6-trichlorophenylsulfonyl)piperidin-3-yl)methoxy)acetamide]",99,50
"Cc1cc(S(=O)(=O)N2CCCCC2CCC(=O)N2CCC(Cc3ccccc3)(N3CCN(C)CC3)CC2)c(C)cc1Cl (centres unmarked) [Compound 130, 1-(4-benzyl-4-(4-methylpiperazin-1-yl)piperidin-1-yl)-3-(1-(4-chloro-2,5-dimethylphenylsulfonyl)piperidin-2-yl)propan-1-one]",102,49
"CN(CC1CCC(Cc2ccccc2)(N2CCCC2)CC1)C(=O)COCC1CCc2ccccc2N1S(=O)(=O)c1ccc(Cl)c(Cl)c1 (centres unmarked) [Compound 127, N-((4-benzyl-4-(pyrrolidin-1-yl)cyclohexyl)methyl)-2-((1-(3,4-dichlorophenylsulfonyl)-1,2,3,4-tetrahydroquinolin-2-yl)methoxy)-N-methylacetamide]",90,54
"COc1cc(C)c(S(=O)(=O)N2CCCCC2COCC(=O)N(C)CCC2CCC(CCc3ccccc3)(N(C)C)CC2)c(C)c1 (centres unmarked) [Compound 73, N-(2-(4-(dimethylamino)-4-phenethylcyclohexyl)ethyl)-2-((1-(4-methoxy-2,6-dimethylphenylsulfonyl)piperidin-2-yl)methoxy)-N-methylacetamide]",104,99
"COc1cc(C)c(S(=O)(=O)N2CCCCC2CCOCC(=O)N2CCC(c3cccc(F)c3)(N3CCN(C)CC3)CC2)c(C)c1 (centres unmarked) [Compound 227, 1-(4-(3-Fluorophenyl)-4-(4-methylpiperazin-1-yl)piperidin-1-yl)-2-(2-(1-(4-methoxy-2,6-dimethylphenylsulfonyl)piperidin-2-yl)ethoxy)ethanone]",100,99
"COc1cc(C)c(S(=O)(=O)N2CCCC(COCC(=O)NC3CCC(c4ccccc4)(N4CCCC4)CC3)C2)c(C)c1 (centres unmarked) [Compound 187, 2-((1-(4-methoxy-2,6-dimethylphenylsulfonyl)piperidin-3-yl)methoxy)-N-(4-phenyl-4-(pyrrolidin-1-yl)cyclohexyl)acetamide]",95,63
"COc1cc(C)c(S(=O)(=O)N2CCCC2COCC(=O)N(C)CC2CCC(CCc3ccccc3)(N3CCN(C)CC3)CC2)c(C)c1 (centres unmarked) [Compound 148, 2-((1-(4-methoxy-2,6-dimethylphenylsulfonyl)pyrrolidin-2-yl)methoxy)-N-methyl-N-((4-(4-methylpiperazin-1-yl)-4-phenethylcyclohexyl)methyl)acetamide]",102,106
"Cc1cc(S(=O)(=O)N2CCCCC2CCC(=O)N(C)CC2CCC(CCc3ccccc3)(N3CCCC3)CC2)c(C)cc1Cl (centres unmarked) [Compound 141, 3-(1-(4-chloro-2,5-dimethylphenylsulfonyl)piperidin-2-yl)-N-methyl-N-((4-phenethyl-4-(pyrrolidin-1-yl)cyclohexyl)methyl)propanamide]",104,20
